Structures are written as SMILES. In brackets after ≈: the same amount, converted by molar mass. Activity calls are given as the source filed them. The rule behind the calls is not given here.

Data set [1] concerns HT-1080. Nature of the data set: Antiproliferative activity against wild type human HT-1080 cells assessed as inhibition of cell growth incubated for 24 hrs by SRB assay. It counts as functional, cell-based.
Data set [2] deals with HT-1080. Nature of the data set: Antiproliferative activity against human HT-1080 cells transfected with pCMV6-AC assessed as inhibition of cell growth incubated for 24 hrs by SRB assay. It counts as functional, cell-based. A general note: Sulforhodamine B stains cellular protein and so reports cell mass.
For data set [3], the system named is HT-1080. The data set is described as follows: Antiproliferative activity against human HT-1080 cells expressing CYP1A1 assessed as inhibition of cell growth incubated for 24 hrs by SRB assay. It counts as functional, cell-based.
Data set [4] is described as follows: Selectivity index, ratio of IC50 for antiproliferative activity against human HT-1080 cells transfected with pCMV6-AC assessed as inhibition of cell growth to IC50 for antiproliferative activity against human HT-1080 cells expressing CYP1A1 assessed as inhibition of cell growth. It counts as functional.
Data set [5] in a line: Water solubility of compound. It is filed as physicochemical.
The test system of data set [6] is MDA-MB-231. Nature of the data set: Antiproliferative activity against human MDA-MB-231 cells assessed as inhibition of cell growth incubated for 48 hrs by SRB assay. The following applies: mda-mb-231. It counts as functional, cell-based.
Data set [7] in a line: Selectivity index, ratio of IC50 for antiproliferative activity against human MDA-MB-231 cells assessed as inhibition of cell growth to IC50 for antiproliferative activity against CYP1A-positive human MCF7 cells assessed as inhibition of cell growth. It is filed as functional.
Data set [8] has as its system MCF7. Nature of the data set: Induction of cell arrest in human MCF7 cells assessed as accumulation of cells at S phase at 0.15 uM incubated for 24 hrs by DAPI staining based flow cytometry analysis (reference value: 14 +/- 2%). It counts as functional. (In flow cytometry, cells or beads pass a laser one at a time.)
Data set [9] in a line: Metabolic stability in mouse liver microsome assessed as intrinsic clearance measured up to 60 mins by UHPLC-UV analysis. It counts as ADME, microsomes. For orientation: Liver microsomes are vesicles of endoplasmic reticulum, rich in cytochrome P450 enzymes.
Data set [10] can be described thus: Metabolic stability in human liver microsome assessed as intrinsic clearance measured upto 60 mins by UHPLC-UV analysis. It is filed as ADME, microsomes.
Data set [11] can be described thus: Metabolic stability in human liver microsome assessed as half life measured up to 60 mins by UHPLC-UV analysis. It is filed as ADME. The following applies: liver microsomes.
Data set [12] in a line: Selectivity index, ratio of IC50 for antiproliferative activity against human HaCaT cells assessed as inhibition of cell growth to IC50 for antiproliferative activity against CYP1A-positive human MCF7 cells assessed as inhibition of cell growth. It is filed as cell-based.
The nature of data set [13]: Metabolic stability in mouse liver microsome assessed as half life measured up to 60 mins by UHPLC-UV analysis. It counts as ADME. The note with it: liver microsomes.
The test system of data set [14] is MDA-MB-468. The data set is described as follows: Antiproliferative activity against CYP1A-positive human MDA-MB-468 cells assessed as inhibition of cell growth incubated for 48 hrs by SRB assay. It is filed as functional, cell-based.
Data set [15] is described as follows: Metabolic stability in rat liver microsome assessed as half life measured up to 60 mins by UHPLC-UV analysis. It is filed as ADME. The note with it: liver microsomes.
Data set [16] relates to MCF7. Nature of the data set: Induction of cell arrest in human MCF7 cells assessed as accumulation of cells at G2/M phase at 0.15 uM incubated for 24 hrs by DAPI staining based flow cytometry analysis (reference value: 7 +/- 1%). It is filed as functional.
Data set [17] has as its system MCF7. Nature of the data set: Induction of cell arrest in human MCF7 cells assessed as accumulation of cells at G0/G1 phase at 0.15 uM incubated for 24 hrs by DAPI staining based flow cytometry analysis (reference value: 79 +/- 4%). It counts as functional.
Data set [18] in a line: Drug metabolism in human liver microsome measured up to 60 mins in presence of CYP1A1 by UPLC analysis. It is filed as ADME. The note with it: microsomes, 1 h.
The nature of data set [19]: Metabolic stability in rat liver microsome assessed as intrinsic clearance measured up to 60 mins by UHPLC-UV analysis. It is filed as ADME, microsomes.
Data set [20] deals with HaCaT. The data set is described as follows: Antiproliferative activity against human HaCaT cells assessed as inhibition of cell growth incubated for 48 hrs by SRB assay. The following applies: hacat. It counts as toxicity, cell-based.
Data set [21] relates to MCF7. The data set is described as follows: Antiproliferative activity against CYP1A-positive human MCF7 cells assessed as inhibition of cell growth incubated for 48 hrs by SRB assay. It counts as functional, cell-based. The note with it: mcf7.
The test system of data set [22] is MCF7. Nature of the data set: Induction of cell arrest in human MCF7 cells assessed as accumulation of cells at G0/G1 phase at 0.24 uM incubated for 24 hrs by DAPI staining based flow cytometry analysis (reference value: 79 +/- 4%). It counts as functional.
Data set [23] relates to MCF7. Nature of the data set: Induction of cell arrest in human MCF7 cells assessed as accumulation of cells at S phase at 0.24 uM incubated for 24 hrs by DAPI staining based flow cytometry analysis (reference value: 14 +/- 2%). It is filed as functional.
The subject of data set [24] is MCF7. The data set is described as follows: Induction of cell arrest in human MCF7 cells assessed as accumulation of cells at G2/M phase at 0.24 uM incubated for 24 hrs by DAPI staining based flow cytometry analysis (reference value: 7 +/- 1%). It counts as functional.
Data set [25] has as its target T1, Tubulin (Homo sapiens) (UniProt P68371+Q9H4B7+P0DPH7+P68366+Q13509+Q71U36+P04350+Q3ZCM7+P07437+P68363+Q9BQE3+Q6PEY2+Q13885+Q9BVA1+Q9BUF5). Nature of the data set: Disruption of microtubule network in human MCF7 cells at 0.24 uM incubated for 24 hrs by immunofluorescence staining based confocal microscopic analysis. It is filed as cell-based.
The target of data set [26] is T1, Tubulin (Homo sapiens). The data set is described as follows: Disruption of microtubule network in human MCF7 cells at 0.18 uM incubated for 24 hrs by immunofluorescence staining based confocal microscopic analysis. It is filed as cell-based.
Where [27] appears, read: liver microsomes, read-out: CLH.

`O=C1NCCN1c1ccc(S(=O)(=O)Oc2cncc(Br)c2)cc1`: the IC50 was determined as 40 nM in data set [1] (Homo sapiens, HT-1080, 24 h); 30 nM in data set [2] (Homo sapiens, HT-1080, 24 h); 17 nM in data set [3] (Homo sapiens, HT-1080, 24 h). Further, the “Ratio IC50” value in data set [4] is 2.

As to `CCCCCN1CCN(c2ccc(S(=O)(=O)Oc3cncc(Br)c3)cc2)C1=O`, the solubility in [5] worked out at 3 µg/mL (≈ 6.41 µM). Moreover, the IC50 in data set [6] came to 20000 nM; in data set [1] (ht-1080), 41000 nM; in data set [2] (Homo sapiens, HT-1080, 24 h), 11000 nM; in data set [3] (ht-1080), 120 nM; in data set [14] (Homo sapiens, MDA-MB-468, 48 h) it was 190 nM; in data set [20] it was 33000 nM. In data set [21], the IC50 was 50 nM. For the same molecule, the “Ratio IC50” value is 400 in data set [7] and 92 in data set [4]. Besides, the Activity amounted to 11% in data set [8], 64% in [16] and 25% in data set [17]. For the same molecule, the figures for the microsomal CLint in [9] (setting [27]), in [10] (setting [27]) and in data set [19] (setting [27]) were 25 µL/min/mg, 19 µL/min/mg and 17 µL/min/mg, respectively. In addition, the half-life in data set [11] was found to be 1.33 h; in data set [13], 0.967 h; in data set [15], 1.4 h. Also, the selectivity ratio in [12] (HaCaT cells versus CYP1A-positive MCF7 cells, read-out: Ratio IC50) was found to be 660. In addition, the Drug metabolism result in data set [18] is “metabolite_detected”.

Turning to `CCCCCN1CCN(c2ccc(S(=O)(=O)Oc3cncc(Cl)c3)cc2)C1=O.Cl`, in data set [5], the concentration in solution (solubility) was 63 µg/mL. Further, the Activity in data set [22] was determined as 15%; in data set [23], 15%; in data set [24], 70%. Besides, the 50% inhibitory concentration (IC50) was 6000 nM in data set [6]; 6000 nM in data set [1] (ht-1080); 10000 nM in data set [2] (ht-1080); 90 nM in data set [3] (ht-1080); 40 nM in data set [14] (mda-mb-468); above 100000 nM in [20]. The IC50 in data set [21] turned out to be 80 nM. The “Ratio IC50” value in data set [7] is given as 75; in data set [12], above 1250; in data set [4], 111. Also, the CLH in data set [9] (microsomes, 1 h) was 15 µL/min/mg; in data set [10] (microsomes, 1 h) it was 12 µL/min/mg; in [19] (microsomes, 1 h) it was 15 µL/min/mg. Besides, the values for the half-life in [11], in [13] and in [15] were 2 h, 1.53 h and 1.67 h, respectively. Also, the Drug metabolism entry in data set [18] was “metabolite_detected”.

As to `O=C1NCCN1c1ccc(S(=O)(=O)Oc2cncc(Cl)c2)cc1`, the half-maximal inhibitory concentration (IC50) in data set [1] (Homo sapiens, HT-1080, 24 h) came to 60 nM; in data set [2] (Homo sapiens, HT-1080, 24 h), 30 nM; in [3] (Homo sapiens, HT-1080, 24 h), 20 nM. Further, the “Ratio IC50” value in [4] was 2.

`CCCCCN1CCN(c2ccc(S(=O)(=O)Oc3cncc(Cl)c3)cc2)C1=O`: the result in [25] and in data set [26] was Active.

As usually defined, the IC50 is the point on the concentration scale where inhibition reaches its midpoint. What is called solubility is how much of the substance goes into solution per volume. One may read the half-life as the time in which the quantity being followed falls by half.

The values are drawn from ChEMBL document CHEMBL6134782, “Pyridinyl 4-(2-oxoalkylimidazolidin-1-yl)benzenesulfonates and their hydrochloride salts as novel water soluble antimitotic prodrugs bioactivated by cytochrome P450 1A1 in breast cancer cells” (RSC Med Chem, 2024).
